Assay results: patent US7585859B2, “PDE4B inhibitors and uses therefor” (Plexxikon, Inc., priority 2004, dated 2009)
Read-outs that look alike come from different tables or passages of the source.

Assays:
[1] = biological target: T1, full-length human PDE4D5 isozyme (Homo sapiens, UniProt Q08499); experiment: PDE4 IC50 determination by Scintillation Proximity Assay, PDE4D5; format: biochemical
T1 construct: The full-length human PDE4D5 isozyme; His6 (N); TEV cleavage site (N); made in house; host or cells: baculovirus infected insect cells (unpurified lysate)
T1 sequence (Q08499 1-745 isoform Q08499-6): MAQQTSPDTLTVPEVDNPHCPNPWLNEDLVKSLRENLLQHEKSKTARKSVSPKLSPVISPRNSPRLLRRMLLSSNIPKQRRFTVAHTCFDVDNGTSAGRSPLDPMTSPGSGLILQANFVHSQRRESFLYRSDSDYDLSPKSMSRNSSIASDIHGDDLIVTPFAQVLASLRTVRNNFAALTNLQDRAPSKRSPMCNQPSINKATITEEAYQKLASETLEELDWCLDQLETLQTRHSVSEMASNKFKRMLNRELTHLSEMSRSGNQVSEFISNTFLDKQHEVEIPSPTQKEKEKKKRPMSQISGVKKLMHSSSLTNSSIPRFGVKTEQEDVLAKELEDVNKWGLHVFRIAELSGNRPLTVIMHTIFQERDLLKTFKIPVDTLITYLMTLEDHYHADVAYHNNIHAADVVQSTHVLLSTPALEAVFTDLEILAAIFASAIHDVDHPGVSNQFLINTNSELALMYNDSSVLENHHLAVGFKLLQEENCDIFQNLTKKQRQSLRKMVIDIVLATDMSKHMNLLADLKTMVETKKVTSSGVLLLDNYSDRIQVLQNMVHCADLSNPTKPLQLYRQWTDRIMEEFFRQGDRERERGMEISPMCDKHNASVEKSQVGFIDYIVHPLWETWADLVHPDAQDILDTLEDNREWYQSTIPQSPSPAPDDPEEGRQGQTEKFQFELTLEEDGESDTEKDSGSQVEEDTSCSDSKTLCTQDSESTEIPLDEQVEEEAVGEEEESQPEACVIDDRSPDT
How it was run: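 Unpurified His6-tagged full-length human PDE4D5 from baculovirus-infected insect cell lysate, 0.083 μl glycerol stock/ml, hydrolysed [3H]cAMP in Tris pH 7.5/MgCl/EGTA buffer, 30 min at 30°. ZnSO4/SPA beads stop; [3H]AMP counted. Controls: DMSO and roflumilast; 11-point duplicate curves, nonlinear-regression IC50.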

[2] = biological target: T2, full-length human PDE4B2 isozyme (Homo sapiens, UniProt Q07343); experiment: PDE4 IC50 determination by Scintillation Proximity Assay, PDE4B2; format: biochemical
T2 construct: The full-length human PDE4B2 isozyme; His6 (N); TEV cleavage site (N); made in house; host or cells: baculovirus infected insect cells (unpurified lysate)
T2 sequence (Q07343 1-564 isoform Q07343-2): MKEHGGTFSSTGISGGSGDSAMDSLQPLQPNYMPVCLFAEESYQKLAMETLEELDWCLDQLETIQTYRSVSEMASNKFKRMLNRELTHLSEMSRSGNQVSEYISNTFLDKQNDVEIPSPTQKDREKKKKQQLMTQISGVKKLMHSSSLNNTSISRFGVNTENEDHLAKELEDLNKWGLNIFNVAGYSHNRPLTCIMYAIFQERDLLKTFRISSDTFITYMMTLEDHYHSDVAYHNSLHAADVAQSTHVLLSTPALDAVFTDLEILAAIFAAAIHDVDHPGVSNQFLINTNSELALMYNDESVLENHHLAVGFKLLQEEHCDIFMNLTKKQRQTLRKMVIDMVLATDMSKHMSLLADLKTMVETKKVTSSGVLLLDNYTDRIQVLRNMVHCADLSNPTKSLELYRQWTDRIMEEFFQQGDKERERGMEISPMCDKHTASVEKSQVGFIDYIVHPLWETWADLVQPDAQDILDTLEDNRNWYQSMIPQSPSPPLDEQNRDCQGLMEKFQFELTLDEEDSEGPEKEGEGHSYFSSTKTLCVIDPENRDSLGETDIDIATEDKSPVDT
How it was run: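 Unpurified His6-TEV-tagged full-length human PDE4B2 from baculovirus-infected insect cell lysate (2.5 μl of 50% glycerol stock/ml) hydrolysed [3H]cAMP in 50 mM Tris pH 7.5, 8.3 mM MgCl, 1.7 mM EGTA, 0.01% BSA for 30 min at 30°. Stopped with SPA beads in 18 mM ZnSO4; [3H]AMP scintillation counted, IC50 by non-linear regression.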

[3] = biological target: T3, PDE4B: The catalytic domain of human PDE4B from S152-S528 (Homo sapiens, UniProt Q07343); experiment: PDE4 IC50 determination by Scintillation Proximity Assay, PDE4B; format: biochemical
T3 construct: His6 (N); thrombin cleavage site (N); made in house; host or cells: E. coli
T3 sequence (Q07343 with tags, fused parts or gaps): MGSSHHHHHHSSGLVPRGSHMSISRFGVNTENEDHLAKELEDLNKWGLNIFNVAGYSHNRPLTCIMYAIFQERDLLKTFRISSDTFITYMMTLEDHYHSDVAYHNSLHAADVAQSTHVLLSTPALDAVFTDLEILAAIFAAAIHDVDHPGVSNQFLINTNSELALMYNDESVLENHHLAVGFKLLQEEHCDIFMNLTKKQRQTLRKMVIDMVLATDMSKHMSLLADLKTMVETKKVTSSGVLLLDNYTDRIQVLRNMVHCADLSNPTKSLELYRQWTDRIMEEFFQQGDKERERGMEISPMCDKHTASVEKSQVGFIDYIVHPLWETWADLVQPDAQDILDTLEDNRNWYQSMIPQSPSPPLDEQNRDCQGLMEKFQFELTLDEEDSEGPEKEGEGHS
How it was run: (§1)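 Scintillation counts reflected [^3H]AMP captured on yttrium silicate SPA beads after enzyme hydrolysed [^3H]cAMP for 30 min at 30°. PDE4B was used at 80 ng/ml and PDE4D at 4 ng/ml. IC50 values came from non-linear regression.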

[4] = system: TNFα levels in serum of LPS-challenged rats; experiment: Rat inhibition studies: serum TNFα after iv LPS challenge; format: in vivo; settings: read-out: % inhibition r TNFα
Procedure: All studies were done with male rats CD (SD) IGS BR (Crl) (Charles River, France), which were grouped in to 5 animal groups.
At the end of the acclimatization period, the non-fasted rats were weighed, individually identified on the tail with a permanent marker and administered by oral (po) or interperitoneal (ip) route with either vehicle, reference or test compound in a volume of 10 mL/kg adapted to the body weight. The animals were gathered in groups of 5 animals in a polystyrene labeled cage with sawdust covered floors. 2-hours after vehicle, reference or test substance administration, rats received an intravenous (iv) injection of 0.1 mg/kg LPS in a volume of 1 mL/kg of body weight. 2 h after LPS challenge (or as indicated in Tables 3B and 4B), blood samples were collected into tubes without anticoagulant by retro-orbital puncture under gas (isoflurane) anesthesia. Samples were allowed to clot at room temperature for 5 to 10 min then put on ice until there were prepared by centrifugation (6000×g for 3 min at 4° C.) and stored at −20° C. until use. TNFα levels were measured in serum samples in duplicate by ELISA technique according to the manufacturer's procedure (Rat TNFα kit Quantikine M (RTA00, R&D System, France)). Data are reported as percent decrease in observed TNFα levels versus TNFa levels observed for vehicle dosed animal groups.

PDE4D = biological target: T4, PDE4D (Homo sapiens, UniProt Q08499); experiment: PDE4 IC50 determination by Scintillation Proximity Assay, PDE4D; format: biochemical
T4 construct: PDE4D: The catalytic domain of human PDE4B from S3 16-V692; His6 (N); thrombin cleavage site (N); made in house; host or cells: E. coli
T4 sequence (Q08499 380-756): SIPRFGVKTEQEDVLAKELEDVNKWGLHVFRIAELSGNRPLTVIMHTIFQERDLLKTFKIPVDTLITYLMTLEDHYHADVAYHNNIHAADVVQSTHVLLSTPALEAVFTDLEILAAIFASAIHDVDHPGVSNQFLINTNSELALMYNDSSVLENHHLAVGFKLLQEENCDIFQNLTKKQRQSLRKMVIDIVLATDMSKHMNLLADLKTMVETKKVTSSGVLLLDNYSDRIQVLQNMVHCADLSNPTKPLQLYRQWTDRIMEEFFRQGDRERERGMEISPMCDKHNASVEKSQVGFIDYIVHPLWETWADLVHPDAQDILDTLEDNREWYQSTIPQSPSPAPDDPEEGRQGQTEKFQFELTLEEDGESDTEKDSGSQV
How it was run: as §1

[5] = Table 1B, Formula I compounds, read-out: IC50 PDE4D5
[6] = Table 1B, Formula I compounds, read-out: IC50 PDE4B2
[7] = Table 1B, Formula I compounds, read-out: IC50 PDE4B
[8] = po, 2 h, rat in vivo inhibition assay, 100 mg/kg po, 2 hr challenge delay
[9] = Table 1B, Formula I compounds, read-out: IC50 PDE4D
[10] = po, 1 h, rat, 100 mg/kg po, 1 hr challenge delay
[11] = 2 h, rat, ip, 2 hr challenge delay
[12] = 2 h, rat, po, 2 hr challenge delay

Row | Structure (SMILES) | IC50 [1, 5] [µM] | IC50 [2, 6] [µM] | IC50 [3, 7] [µM] | inhibition in vivo at 100 mg/kg [4, 8] [%] | IC50 (PDE4D; [9]) [µM] | also measured
1 | N#Cc1c(Nc2ccccc2)sc(C(=O)c2ccc(-c3ccccc3)cc2)c1N [Compound 1-34, 4-Amino-5-(biphenyl-4-carbonyl)-2-phenylamino-thiophene-3-carbontrile] | < 10 | < 10 | < 10 | > 20 | < 10 | –
2 | N#Cc1c(Nc2ccccc2)sc(C(=O)c2ccc3ccccc3c2)c1N [Compound 1-35, 4-Amino-5-(naphthalene-2-carbonyl)-2-phenylamino-thiophene-3-carbonitrile] | < 10 | < 10 | < 10 | < 20 | < 10 | –
3 | COc1ccc(C(=O)c2sc(Nc3ccc(Cl)cc3)c(C#N)c2N)cc1 [Compound 1-36, 4-Amino-2-(4-chloro-phenylamino)-5-(4-methoxy-benzoyl)-thiophene-3-carbonitrile] | < 10 | < 10 | < 10 | – | < 10 | inhibition in vivo at 100 mg/kg [4, 10]: < 20%
4 | COc1ccc(C(=O)c2sc(Nc3ccc(F)cc3)c(C#N)c2N)cc1 [Compound 1-37, 4-Amino-2-(4-fluoro-phenylamino)-5-(4-methoxy-benzoyl)-thiophene-3-carbonitrile] | < 10 | < 10 | < 10 | – | < 10 | inhibition in vivo at 100 mg/kg [4, 10]: < 20%
5 | N#Cc1c(NC2CCCC2)sc(C(=O)c2cc(-c3ccccc3)no2)c1N [Compound 1-143, 4-Amino-2-cyclopentylamino-5-(3-phenyl-isoxazole-5-carbonyl)-thiophene-3-carbonitrile] | < 10 | < 10 | < 10 | – | < 10 | inhibition in vivo at 50 mg [4, 11]: > 20%; inhibition in vivo at 80 mg ([4]; 2 h, rat, 80 mg, po, 2 hr challenge delay): < 20%; inhibition in vivo at 100 mg/kg ([4]; ip, 2 h, rat, 100 mg/kg, ip, 2 hr challenge delay): > 20%
6 | N#Cc1c(Nc2ccc(Oc3ccccc3)cc2)sc(C(=O)c2ccccc2Cl)c1N [Compound 1-161, 4-Amino-5-(2-chloro-benzoyl)-2-(4-phenoxy-phenylamino)-thiophene-3-carbonitrile] | < 10 | < 10 | < 10 | – | > 10 | inhibition in vivo at 90 mg [4, 11]: > 20%; inhibition in vivo at 90 mg [4, 12]: < 20%
7 | CSc1cccc(Nc2sc(C(=O)c3ccccc3)c(N)c2C#N)c1 [Compound 1-169, 4-Amino-5-benzoyl-2-(3-methylsulfanyl-phenylamino)-thiophene-3-carbonitrile] | < 10 | < 10 | < 10 | – | < 10 | inhibition in vivo at 70 mg ([4]; 2 h, rat, 70 mg, po, 2 hr challenge delay): > 20%
8 | N#Cc1c(NC2CCCC2)sc(C(=O)c2ccccc2)c1N [Compound 1-171, 4-Amino-5-benzoyl-2-cyclopentylamino-thiophene-3-carbonitrile] | < 10 | < 10 | < 10 | < 20 | < 10 | –
9 | N#Cc1c(NC2CCCC2)sc(C(=O)c2cc(-c3ccc(Cl)cc3)no2)c1N [Compound 1-173, 4-Amino-5-[3-(4-chloro-phenyl)-isoxazole-5-carbonyl]-2-cyclopentylamino-thiophene-3-carbonitrile] | > 10 | < 10 | < 10 | < 20 | > 10 | –
10 | CSc1cccc(Nc2sc(C(=O)c3cc(-c4ccccc4)no3)c(N)c2C#N)c1 [Compound 1-181, 4-Amino-2-(3-methylsulfanyl-phenylamino)-5-(3-phenyl-isoxazole-5-carbonyl)-thiophene-3-carbonitrile] | < 10 | < 10 | < 10 | < 20 | < 10 | –
11 | N#Cc1c(NC2CC2)sc(C(=O)c2cc(-c3ccccc3)no2)c1N [Compound 1-186, 4-Amino-2-cyclopropylamino-5-(3-phenyl-isoxazole-5-carbonyl)-thiophene-3-carbonitrile] | < 10 | < 10 | < 10 | < 20 | > 10 | –
12 | N#Cc1c(NC2CCCC2)sc(C(=O)c2cc(-c3ccc(F)cc3)no2)c1N [Compound 1-221, 4-Amino-2-cyclopentylamino-5-[3-(4-fluoro-phenyl)-isoxazole-5-carbonyl]-thiophene-3-carbonitrile] | > 10 | < 10 | < 10 | – | > 10 | inhibition in vivo at 50 mg [4, 12]: < 20%
13 | Nc1nc(NC2CCCC2)sc1C(=O)c1cc(-c2ccccc2)no1 [Compound 2-9, (4-Amino-2-cyclopentylamino-thiazol-5-yl)-(3-phenyl-isoxazol-5-yl)-methanone] | – | – | – | – | – | IC50 ([1]; first part of Table 2B (2-1 to 2-22), read-out: IC 50 vs. indicated assay PDE4D5): < 10 µM; IC50 ([2]; first part of Table 2B (2-1 to 2-22), read-out: IC 50 vs. indicated assay PDE4B2): < 10 µM; IC50 ([3]; first part of Table 2B (2-1 to 2-22), read-out: IC 50 vs. indicated assay PDE4B): < 10 µM; inhibition in vivo at 100 mg/kg ([4]; po, 2 h, rat in vivo, 100 mg/kg po, 2 hr challenge delay, percent decrease in TNFα versus vehicle): > 20%; IC50 (PDE4D; first part of Table 2B (2-1 to 2-22), read-out: IC 50 vs. indicated assay PDE4D): < 10 µM
